Results: US9932479B2, “Dyes and compositions, and processes for using same in analysis of protein aggregation and other applications” (Enzo Biochem, Inc., priority 2009, dated 2018)

Legend:
[1] = Fluorescence excitation and emission spectra of dye freely dissolved in buffer; type: physicochemical; conditions: 50 mM Tris-HCl, pH 7.8, 10 μM dye, room temperature
Description: (§1) Fluorescent readings were carried out in 50 mM Tris-HCl, pH 7.8 using 10 μM dye. […] Fluorescence excitation and emission spectra were collected on a Cary Eclipse fluorescence spectrophotometer (Varian, Australia). Fluorescence spectra were measured with excitation and emission slit widths set to 5 nm, and at a constant PMT voltage. Spectroscopic measurements were performed in standard quartz cells. All measurements were made at the respective excitation maxima of each dye. All measurements were carried out at room temperature.

β-lactoglobulin (BLG) = biological target: T1, β-lactoglobulin (BLG) (Bos taurus, UniProt P02754); experiment: Thermal shift assay of BLG aggregation; type: binding; conditions: BLG 4 or 16 mg/mL, heating 28° C. to 90° C.
T1 sequence (P02754 17-178): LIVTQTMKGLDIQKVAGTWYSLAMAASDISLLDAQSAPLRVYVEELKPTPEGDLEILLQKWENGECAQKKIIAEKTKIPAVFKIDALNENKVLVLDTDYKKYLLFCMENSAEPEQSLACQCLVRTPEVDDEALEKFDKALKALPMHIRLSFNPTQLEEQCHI
Description: A solution containing 4 or 16 mg/mL of β-lactoglobulin (BLG) and 2×SYPRO® Orange dye (Molecular Probes, supplied as 5000× with unknown concentration) or 4 μM TOL3 or 4 μM S25 was prepared using 1×PBS, pH 7.4 as the dilution buffer. This solution was then loaded into LightCycler® capillaries (20 μL, Roche Diagnostics GmbH). These capillaries were then mounted on the sample holder of a LightCycler® 480 Real-Time PCR System (Roche), programmed to heat from 28° C. to 90° C. at 3° C./min, followed by cooling down to 28° C. at the same rate. The thermal shift curves were achieved by plotting fluorescence intensity vs. temperature. After the heating cycle, protein aggregates were visually apparent.

[2] = biological target: T2, recombinant human alpha-synuclein (ASN) aggregate (Homo sapiens, UniProt P37840); experiment: Fluorescence excitation and emission spectra of dye in the presence of aggregated alpha-synuclein; type: binding; conditions: 1 μM aggregated ASN, 50 mM Tris-HCl, pH 7.8, 10 μM dye
T2 construct: purchased Sigma-Aldrich
Description: as §1

[3] = test system: goat-anti-mouse IgG aggregate; experiment: Fluorescence enhancement (aggregate/native IgG) in the presence of excipients; type: binding; conditions: for Fluorescence enhancement (aggregate/native IgG): 2.8 μM IgG, 0.625 μM dye
Description: IgG aggregate was prepared by adjusting 5.83 mg/ml of purified goat-anti-mouse IgG (H&L, Pel Freez, Rogers, Ark.) to pH 2.7 using HCl and incubating at 22° C. for 24 hours. The assay was performed using 2.8 μM IgG, either native or aggregated, and a dye concentration of 0.625 μM. The protein and dye were mixed together for 15 minutes at 22° C., then this was further incubated in the presence of the excipients shown in the table. The fluorescence intensity of S-25, Tol3 and Y2150 were determined with a FLUOstar OPTIMA plate reader (BMG LABTECH) at excitation wavelength of 550 nm and emission wavelength of 610 nm; while the fluorescence intensity for Thioflavin-T was determined using a SpectraMAX GeminiXS (Molecular device, with Softmax Pro 7.0) using an excitation wavelength of 435 nm and emission wavelength of 495 nm. The fluorescence enhancement (aggregate/native IgG) is shown.

Goat anti-mouse IgG = experiment: High-throughput protein formulation optimization: effect of excipients on IgG aggregation at 50° C., S-25/Tol3 readout; type: biochemical; conditions: 50° C. for 6 hours
Description: (A). Goat anti-mouse IgG was diluted in sodium acetate, pH 4.5, then mixed with the excipients shown in FIG. 10 A giving a final concentration of 400 mM sodium acetate, 18 μM IgG and the excipient concentration shown in the Table 2. This mixture was heated to 50° C. for 6 hours. At this time the protein solution was diluted two-fold to give a final concentration of 50 mM Histidine buffer, originally pH 7, 2.5 μM S-25, 2.5 μM Tol3 and 9 μM IgG. After 30 minutes of incubation on the shaker, the fluorescence intensity was recorded on the plate reader (FLUOstar Optima). The fluorescence intensity from each individual excipient was then compared with that without any excipient (Value set as 1.0) as shown on the top of the corresponding excipient bar in FIG. 12 A.
(B). In the control plate, the IgG was added to the plate, at the same volume and concentration given above (Example 17A) in 400 mM Sodium Acetate. This mixture was heated to 50° C. for 6 hours, as described above. After 6 hours, the excipient was added followed by S-25 and Tol3 to give all the final concentrations as shown in Example 17A. Similar to the sample plate, the fluorescence intensity from individual excipients was also compared with that from water without any excipient (Values set as 1.0) to obtain the relative fluorescent intensity as shown on the top of the corresponding excipient bar in FIG. 12B.
(C). […]

CN(C)c1ccc(/C=C/c2cc[n+](CCCCCC[n+]3ccc(/C=C/c4ccc(N(C)C)cc4)cc3)cc2)cc1.CS(=O)(=O)[O-].CS(=O)(=O)[O-] [Dye S25]
Dye freely dissolved in buffer: Emission wavelength [1]: 613 nm
Dye freely dissolved in buffer: Excitation wavelength [1]: 485 nm
Detection of BLG thermal shift (melting) peak (β-lactoglobulin (BLG)): able to detect BLG thermal shift peaks
In the presence of aggregate: Emission wavelength [2]: 607 nm
In the presence of aggregate: Excitation wavelength [2]: 516 nm
Fluorescence enhancement (aggregate/native IgG) ([3]; Ammonium Sulfate, 10 mM): 15.4 fold
Fluorescence enhancement (aggregate/native IgG) ([3]; Ammonium Sulfate, 100 mM): 14.6 fold
Fluorescence enhancement (aggregate/native IgG) ([3]; Ammonium Sulfate, 300 mM): 13.3 fold
Fluorescence enhancement (aggregate/native IgG) ([3]; Arginine, 200 mM): 14.8 fold
Fluorescence enhancement (aggregate/native IgG) ([3]; Arginine, 500 mM): 13.5 fold
Fluorescence enhancement (aggregate/native IgG) ([3]; Ascoric Acid, 1 mM): 13.9 fold
Fluorescence enhancement (aggregate/native IgG), Average ([3]; Average over all excipient conditions): 19.3 fold
Fluorescence enhancement (aggregate/native IgG) ([3]; Calcium Chloride, 10 mM): 9.7 fold
Fluorescence enhancement (aggregate/native IgG) ([3]; Calcium Chloride, 50 mM): 9.6 fold
Fluorescence enhancement (aggregate/native IgG) ([3]; Calcium Chloride, 200 mM): 6.7 fold
Fluorescence enhancement (aggregate/native IgG) ([3]; DTT, 1 mM): 13.2 fold
Fluorescence enhancement (aggregate/native IgG) ([3]; Glycine, 0.5%): 14.1 fold
Fluorescence enhancement (aggregate/native IgG) ([3]; Glycine, 2%): 15.1 fold
Fluorescence enhancement (aggregate/native IgG) ([3]; Lactose, 100 mM): 23.0 fold
Fluorescence enhancement (aggregate/native IgG) ([3]; Lactose, 300 mM): 38.9 fold
Fluorescence enhancement (aggregate/native IgG) ([3]; Mannitol, 100 mM): 16.7 fold
Fluorescence enhancement (aggregate/native IgG) ([3]; Mannitol, 300 mM): 15.2 fold
Fluorescence enhancement (aggregate/native IgG) ([3]; Mannitol, 600 mM): 20.9 fold
Fluorescence enhancement (aggregate/native IgG) ([3]; Sodium Chloride, 10 mM): 14.0 fold
Fluorescence enhancement (aggregate/native IgG) ([3]; Sodium Chloride, 100 mM): 13.6 fold
Fluorescence enhancement (aggregate/native IgG) ([3]; Sodium Chloride, 1000 mM): 11.7 fold
Fluorescence enhancement (aggregate/native IgG) ([3]; Sorbitol, 100 mM): 16.4 fold
Fluorescence enhancement (aggregate/native IgG) ([3]; Sorbitol, 300 mM): 21.0 fold
Fluorescence enhancement (aggregate/native IgG) ([3]; Sorbitol, 600 mM): 25.4 fold
Fluorescence enhancement (aggregate/native IgG) ([3]; Trehalose, 100 mM): 17.8 fold
Fluorescence enhancement (aggregate/native IgG) ([3]; Trehalose, 300 mM): 32.1 fold
Fluorescence enhancement (aggregate/native IgG) ([3]; Trehalose, 600 mM): 30.1 fold
Fluorescence enhancement (aggregate/native IgG) ([3]; Tween 20, 0.01%): 70.8 fold
Fluorescence enhancement (aggregate/native IgG) ([3]; Tween 20, 0.2%): 26.7 fold
Fluorescence enhancement (aggregate/native IgG) ([3]; X100, 0.01%): 19.2 fold
Fluorescence enhancement (aggregate/native IgG) ([3]; X100, 0.2%): 7.3 fold
Fluorescence enhancement (aggregate/native IgG) ([3]; X100, 1%): 2.9 fold

OC[C@H]1O[C@H](O[C@H]2O[C@H](CO)[C@@H](O)[C@H](O)[C@H]2O)[C@H](O)[C@@H](O)[C@@H]1O [Trehalose]
Effect on aggregation of IgG (fluorescence ratio sample plate / control plate) (Goat anti-mouse IgG; 100 mM Trehalose): inhibit or slow down aggregation of IgG

Triton X-100
Effect on aggregation of IgG (fluorescence ratio sample plate / control plate) (Goat anti-mouse IgG; 0.2% Triton X-100): induce aggregation of IgG
